One assay has as its system BEAS-2B normal cells. Nature of the assay: MTT antiproliferative assay, normal cells BEAS-2B. Type of assay: cell-based. As to conditions: 24 h drug exposure.
The next assay concerns HeLa cancer cells. Nature of the assay: MTT antiproliferative assay, HeLa. The assay is classed as cell-based, human. Conditions: 24 h drug exposure.
A further assay concerns A549 cancer cells. Nature of the assay: MTT antiproliferative assay, A549. Type of assay: cell-based, human. Conditions: 24 h drug exposure. For orientation: Tetrazolium assays rely on reduction of a dye to a coloured formazan, in cell work by metabolically active cells.
For another assay, the system named is HepG2 cancer cells. Nature of the assay: MTT antiproliferative assay, HepG2. Type of assay: cell-based. Conditions: 24 h drug exposure.
Another assay concerns lysosomes in A549 cells. Conditions: cited from earlier work.

Turning to `N.N.[Cl][Pt][Cl]` [cisplatin], the IC50 (usually the concentration at which inhibition is half-maximal) worked out at 42 ± 2.3 µM in the assay with BEAS-2B normal cells, 7.5 ± 0.2 µM in the assay on HeLa cancer cells, 21.3 ± 1.7 µM with A549 cancer cells and 22.7 ± 1.1 µM in the assay on HepG2 cancer cells.
Consider `CCN(CC)c1ccc2c(c1)Oc1cc(N(CC)CC)ccc1C21c2ccccc2C(=O)N1N` [rhodamine B hydrazide], for which the “Colocalization coefficient with lysosome” value in the assay on lysosomes in A549 cells was 0.62.
Consider `CCNc1cc2c(cc1C)C1(c3cc(C)c(NCC)cc3O2)c2ccccc2C(=O)N1N` [rhodamine 6G hydrazide], for which the “Colocalization coefficient with lysosome” value in the assay on lysosomes in A549 cells is on record as 0.58.

The record behind these values is paper PMC6751730 (ACS Omega, 2019).
